Common to all, as to assay type: cell-based, murine
In assay [1] the test system is differentiated adipocytes (3T3-L1 cells). The experiment in a line: Oil red O staining, lipid droplet size in differentiated cultured adipocytes. To be noted: 6 days, vs untreated control (C). As for the experimental part:
(§1) 3T3-L1 murine fibroblasts were obtained from American Type Culture Collection (Rockville, MD, USA). After thawing, cells were resuspended in DMEM, supplemented with 10% heat-inactivated fetal bovine serum (FBS, Invitrogen, Carlsbad, CA, USA) and 1% antibiotic/antimycotic solution (Invitrogen). Culture medium was replaced every 3 days containing 0.25 μM dexamethasone, 10 μg/ml insulin and 0.5 mM 3-isobutyl-1-methylxanthine (Sigma-Aldrich, St. Louis, MO, USA) in DMEM with 10% FBS. Differentiating 3T3-L1 preadipocytes were treated with TQ or Vitamin D3 or combinations thereof for 6 days.
The size of the lipid droplets in differentiated adipocytes (i.e., 3T3-L1 cells prepared as in the previous section) following the various treatments was measured using oil red O staining. Briefly, differentiated adipocytes were washed with phosphate buffered saline (PBS) and fixed in 3.7% formaldehyde for 10 min. Cells were stained with oil red O solution for 30 min at 25° C. Staining was visualized using bright-field microscopy. Lipid droplet size was then measured using Image Pro (advance Imaging Concept, Inc., Princeton, NJ).
The aim of this study was to investigate the effect of combinations of TQ and vitamin D3 on the accumulation of lipids in cultured adipocytes. For the purpose of this investigation, 3T3-L1 murine fibroblasts were grown and differentiated as described hereinabove. The differentiated cultures were then treated for six days with TO, vitamin D3 or combinations thereof. Following this treatment, the size of the accumulated lipid droplets within the cultured cells were assessed using the oil red O staining method described hereinabove.

Another assay concerns UCP1. Nature of the assay: Western blot, UCP1 expression in cultured adipocytes. Particulars: TQ 1 μM, vitamin D3 10 nM, alone or combined; 6 days; relative to β-actin; FIG. 6. The method, then:
as §1
(§2) The cultured adipocytes were homogenized and lysed in RIPA lysis buffer containing protease and phosphatase inhibitors (Complete TM Mini and PhosSTOPTM, Roche Diagnostics, Indianapolis, IN). […] The blots were visualized using an Odyssey Infrared Imaging Scanner (Li-Cor Science Tec) and quantified by densitometric analysis after normalization with β-actin. […]
(§3) The aim of this study was to investigate the effect of a combination of vitamin D3 (10 nM) and TQ (1 μM) on the expression of the UCP1, PGC-1α and Mfn2 genes in cultured adipocytes. […] Following SDS-PAGE separation and western blotting, the three gene products were detected using the appropriate antibodies, and the level of each protein measured, all as described above in the general methods section.
(In general: A western blot detects proteins with antibodies after separation by electrophoresis.)

In another assay the test system is PGC-1α. The experiment in a line: Western blot, PGC-1α expression in cultured adipocytes. To be noted: TQ 1 μM, vitamin D3 10 nM, alone or combined; 6 days; relative to β-actin; FIG. 7. The method, then: as §1, §2, §3
A further assay has as its system Mfn2. The experiment in a line: Western blot, Mfn2 expression in cultured adipocytes. To be noted: TQ 1 μM, vitamin D3 10 nM, alone or combined; 6 days; relative to β-actin; vs untreated control (C); FIG. 8. The method, then:
as §1, §2, §3

The next assay relates to TNF-α. Nature of the assay: Western blot, TNF-α levels produced by cultured differentiated 3T3-L1 cells. To be noted: 1 μM TQ alone or 10 nM Vitamin D3 alone, vs untreated control (C), FIG. 9. As for the experimental part:
as §1
The cultured adipocytes were homogenized and lysed in RIPA lysis buffer containing protease and phosphatase inhibitors (Complete TM Mini and PhosSTOPTM, Roche Diagnostics, Indianapolis, IN). Protein samples were separated using 10% sodium dodecyl sulfate-polyacrylamide (SDS) gels and transferred to a nitrocellulose membrane (Bio-Rad, Hercules, CA, USA). […] The blots were visualized using an Odyssey Infrared Imaging Scanner (Li-Cor Science Tec) and quantified by densitometric analysis after normalization with β-actin. […]
The levels of TNF-α produced by cultured, differentiated 3T3-L1 cells were measured using specific anti-TNF-α antibodies in a western blot assay, as described hereinabove. […]

Entries after “also recorded” stand apart in the source; their conditions may differ.

Take `CC1=CC(=O)C(C(C)C)=CC1=O` [TQ, thymoquinone]: the “average lipid droplet size” value in assay [1] (TQ 1 μM, FIG. 1) is listed as “statistically significant reduction in lipid droplet size”; in assay [1] (TQ 2 μM, FIG. 1), “statistically significant reduction in lipid droplet size; also recorded: greater degree of size reduction than that caused by the 1 μM dose; also recorded: greatest effect”; in assay [1] (TQ 4 μM, FIG. 1), “statistically significant reduction in lipid droplet size; also recorded: did not cause any further enhancement of this effect; also recorded: greatest effect”. Besides, the UCP1 expression result with UCP1 is “statistically significant elevation of UCP1 expression”. Further, the PGC-1α expression result with PGC-1α is recorded as “statistically significant elevation of PGC-1α expression”. For the same molecule, in the assay on Mfn2, the Mfn2 expression result is “statistically significant elevation of Mfn2 expression”. In the assay on TNF-α, the “decrease in TNF-α expression” value is “approximately 50%”.
On to `C=C1CC[C@H](O)C/C1=C/C=C1\CCC[C@]2(C)[C@@H]([C@H](C)CCCC(C)C)CC[C@@H]12` [Vitamin D3, cholecalciferol, reference compound], for which the “average lipid droplet size” value is on record as “slight reduction in lipid droplet size, this reduction was not statistically significant” in assay [1] (Vitamin D3 1 nM, FIG. 2); “statistically significant reduction in lipid droplet size” in assay [1] (Vitamin D3 10 nm, FIG. 2); “statistically significant reduction in lipid droplet size” in assay [1] (Vitamin D3 100 nm, FIG. 2). In the assay with UCP1, the UCP1 expression result is reported as “statistically significant elevation of UCP1 expression”. The PGC-1α expression result with PGC-1α is on record as “statistically significant elevation of PGC-1α expression”. Moreover, in the assay on Mfn2, the Mfn2 expression entry is reported as “statistically significant elevation of Mfn2 expression”. In the assay with TNF-α, the “decrease in TNF-α expression” value is listed as “approximately 50%”.

These data come from patent publication US20250049816A1, “COMPOSITIONS COMPRISING THYMOQUINONE AND VITAMIN D” (N.S. Oils Ltd., priority 2021, published 2025).
